From publication PMC3578011 (Journal of neurochemistry, 2013)
Entries after “also recorded” stand apart in the source; their conditions may differ.

Columns and labels:
CB1 [1] = target: T1, CB1 (Homo sapiens, UniProt P21554); settings: for time of maximal ERK1/2 phosphorylation: 0.5 µM CP55,940 or 3.2 µM ICAM-b
CB1 wild-type receptor = CB1 wild-type receptor (Homo sapiens, UniProt P21554); assay: [35S]GTPγS binding assay; assay type: biochemical
[2] = Solubility in organic solvents; assay type: physicochemical; settings: except tetrahydrofuran (THF)
CB1 [3] = target: T1, CB1; assay: Radioligand binding assay, cooperativity with [3H]SR141716A; settings: for effect on [3H]SR141716A binding: in the concentration range tested
CB1 [4] = target: T1, CB1; assay: Radioligand binding assay, cooperativity with [3H]CP55,940; settings: for cooperativity factor (α): from [3H]CP55,940 binding curves, membranes of HEK293 cells expressing CB1
CB1 [5] = target: T1, CB1; assay type: binding; settings: in the presence of ICAM-b

Sequence of CB1 wild-type receptor (P21554 whole entry): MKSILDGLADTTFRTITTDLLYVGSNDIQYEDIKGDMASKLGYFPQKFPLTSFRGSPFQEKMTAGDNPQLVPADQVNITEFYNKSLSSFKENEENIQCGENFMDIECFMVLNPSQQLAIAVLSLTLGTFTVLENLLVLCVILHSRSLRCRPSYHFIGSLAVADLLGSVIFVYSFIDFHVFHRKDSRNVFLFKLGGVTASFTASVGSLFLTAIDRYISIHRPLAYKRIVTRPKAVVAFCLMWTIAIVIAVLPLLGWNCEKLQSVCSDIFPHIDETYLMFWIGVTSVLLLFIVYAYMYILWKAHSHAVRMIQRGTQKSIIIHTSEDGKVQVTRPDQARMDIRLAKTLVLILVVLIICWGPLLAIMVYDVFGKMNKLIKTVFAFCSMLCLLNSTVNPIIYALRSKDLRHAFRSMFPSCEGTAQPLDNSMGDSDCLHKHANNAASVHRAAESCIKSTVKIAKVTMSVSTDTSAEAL
T1 sequence (P21554 whole entry): as above

SMILES: CCCCCCC(C)(C)c1ccc([C@@H]2C[C@H](O)CC[C@H]2CCCO)c(O)c1 [CP55,940, (1R,3R,4R)-3-[2-hydroxy-4-(1,1-dimethylheptyl)-phenyl]-4-(3-hydroxypropyl)cyclohexan-1-ol, reference compound]
- time of maximal ERK1/2 phosphorylation (CB1 [1]; HEK293 cells expressing CB1): 5 min
- Emax of CP55,940-induced [35S]GTPγS binding (CB1 wild-type receptor; in the absence of ICAM-b): 98.9 fmol/mg

SMILES: CCc1c(C(=O)NCCc2ccc(N3CCCCC3)cc2)n(C)c2ccc(Cl)cc12 [ICAM-a, 5-chloro-3-ethyl-1-methyl-N-(4-(piperidin-1-yl)phenethyl)-1H-indole-2-carboxamide]
- solubility in common organic solvents [2]: poor
- effect on [3H]SR141716A binding (CB1 [3]): little effect; also recorded: no effect
- Kb (CB1 [4]): 5.78 µM
- cooperativity factor (α) (CB1 [4]): 11.9

SMILES: CCCCCc1c(C(=O)NCCc2ccc(N3CCCCC3)cc2)[nH]c2ccc(Cl)cc12 [ICAM-b, 5-chloro-3-pentyl-N-(4-(piperidin-1-yl)phenethyl)-1H-indole-2-carboxamide]
- solubility in common organic solvents [2]: poor
- Bmax changes for CP55,940 and SR141716A (CB1 [5]): Negligible
- time of maximal ERK1/2 phosphorylation (CB1 [1]; HEK293 cells expressing CB1): 5 min
- transient ERK1/2 phosphorylation compared with CP55,940 alone (CB1 [1]; ICAM-b alone, control siRNA, HEK293 cells expressing CB1): larger increase
- effect of β-arrestin 2 siRNA on patterns of ERK1/2 phosphorylation (CB1 [1]; compared to control siRNA transfection): did not alter
- cooperativity factor (α) (CB1 [3]; [3H]SR141716A as tracer, membranes of HEK293 cells expressing CB1): 0.11
- effect on [3H]SR141716A binding (CB1 [3]): substantial decrease
- inhibition of CP55,940-induced [35S]GTPγS binding (CB1 wild-type receptor; 3.2 µM ICAM-b): complete inhibition
- [35S]GTPγS binding level (CB1 wild-type receptor; 3.2 µM ICAM-b, basal level 50.1 fmol/mg): 42.1 fmol/mg
- Emax of CP55,940-induced [35S]GTPγS binding (CB1 wild-type receptor; in the presence of 0.32 µM ICAM-b): 78.7 fmol/mg
- Emax of CP55,940-induced [35S]GTPγS binding (CB1 wild-type receptor; in the presence of 1 µM ICAM-b): 59.3 fmol/mg
- cooperativity factor (α) (CB1 [4]): 17.6
